Several values for one entry are separate records, joined by “and”; a condition that tells them apart may be missing. Identical values can stand only once.
Legend:
[1] = 101 kPa, Liquid; for speed of sound: Pulse-echo method
[2] = refractive index (Na D-line) (dimensionless); conditions: 101.33 kPa, Liquid, Standard Abbe refractometry
[3] = xn = mol fraction of the nth substance listed; conditions: 101 kPa, Liquid; for speed of sound: Pulse-echo method
[4] = refractive index (Na D-line) (dimensionless); xn = mol fraction of the nth substance listed; conditions: 101 kPa, Liquid, Standard Abbe refractometry

c1ccccc1 [benzene]
Conditions | mass density, [1] | refractive index, [2] | speed of sound, [1] [m/s]
283.15 K | 889.5 kg/m3 | 1.50765 | 1371
298.15 K | 873.9 kg/m3 and 873.6 kg/m3 | 1.49774 | 1299

C1CCCCC1 [cyclohexane]
Conditions | mass density, [1] [kg/m3] | refractive index, [2] | speed of sound, [1] [m/s]
283.15 K | 787.8 | 1.43193 | 1329
298.15 K | 773.9 | 1.4236 | 1255

C1CCCCCCC1 [cyclooctane]
298.15 K
Conditions | mass density [kg/m3] | refractive index | speed of sound [m/s]
[1] | 831.5 | – | 1391
[2] | – | 1.45598 | –

CCc1ccccc1 [ethylbenzene]
Conditions | mass density, [1] [kg/m3] | refractive index, [2] | speed of sound, [1] [m/s]
283.15 K | 875.7 | 1.50129 | 1382
298.15 K | 862.5 | 1.49304 | 1319

CC1CCCCC1 [methylcyclohexane]
Conditions | mass density, [1] [kg/m3] | refractive index, [2] | speed of sound, [1] [m/s]
283.15 K | 777.9 | 1.42833 | 1281
298.15 K | 765.1 | 1.42062 | 1215

CC1CCCCC1 [methylcyclohexane] + Cc1ccccc1
Conditions | mass density, [3] [kg/m3] | refractive index, [4] | speed of sound, [3] [m/s]
283.15 K, x1 = 0.05 | 869.8 | 1.49797 | 1363
283.15 K, x1 = 0.0998 | 863.7 | 1.49331 | 1356
283.15 K, x1 = 0.198 | 852 | 1.48436 | 1342
283.15 K, x1 = 0.2951 | 841 | 1.47614 | 1330
283.15 K, x1 = 0.3968 | 830.3 | 1.46797 | 1320
283.15 K, x1 = 0.4959 | 820.3 | 1.46042 | 1311
283.15 K, x1 = 0.5973 | 810.7 | 1.45319 | 1302
283.15 K, x1 = 0.697 | 801.8 | 1.44643 | 1296
283.15 K, x1 = 0.7954 | 793.5 | 1.44018 | 1290
283.15 K, x1 = 0.8932 | 785.8 | 1.4342 | 1285
283.15 K, x1 = 0.9487 | 781.6 | 1.43118 | 1283
283.15 K, x1 = 1 | 777.9 | 1.42833 | 1281
298.15 K, x1 = 0.05 | 855.9 | 1.48937 | 1297
298.15 K, x1 = 0.0998 | 849.9 | 1.48481 | 1290
298.15 K, x1 = 0.198 | 838.2 | 1.47597 | 1276
298.15 K, x1 = 0.2951 | 827.4 | 1.4678 | 1264
298.15 K, x1 = 0.3968 | 816.8 | 1.45982 | 1253
298.15 K, x1 = 0.4959 | 806.9 | 1.45225 | 1244
298.15 K, x1 = 0.5973 | 797.4 | 1.44519 | 1236
298.15 K, x1 = 0.697 | 788.6 | 1.4385 | 1229
298.15 K, x1 = 0.7954 | 780.4 | 1.43233 | 1223
298.15 K, x1 = 0.8932 | 772.7 | 1.42635 | 1219
298.15 K, x1 = 0.9487 | 768.6 | 1.42344 | 1216
298.15 K, x1 = 1 | 765.1 | 1.42062 | 1215

CC1CCCCC1 [methylcyclohexane] + c1ccccc1
Conditions | mass density, [3] [kg/m3] | refractive index, [4] | speed of sound, [3] [m/s]
283.15 K, x1 = 0.0504 | 880.6 | 1.50135 | 1359
283.15 K, x1 = 0.099 | 872.4 | 1.49548 | 1350
283.15 K, x1 = 0.1998 | 856.9 | 1.48438 | 1333
283.15 K, x1 = 0.2978 | 843.4 | 1.47501 | 1320
283.15 K, x1 = 0.3991 | 830.7 | 1.46578 | 1308
283.15 K, x1 = 0.4993 | 819.5 | 1.45783 | 1299
283.15 K, x1 = 0.598 | 809.6 | 1.45078 | 1293
283.15 K, x1 = 0.6991 | 800.5 | 1.44435 | 1288
283.15 K, x1 = 0.7981 | 792.4 | 1.43862 | 1284
283.15 K, x1 = 0.8961 | 784.9 | 1.4333 | 1282
283.15 K, x1 = 0.9523 | 781 | 1.43058 | 1282
283.15 K, x1 = 1 | 777.9 | 1.42833 | 1281
298.15 K, x1 = 0.0504 | 865 | 1.49162 | 1289
298.15 K, x1 = 0.099 | 857.1 | 1.48594 | 1280
298.15 K, x1 = 0.1998 | 841.9 | 1.47509 | 1263
298.15 K, x1 = 0.2978 | 828.8 | 1.46597 | 1250
298.15 K, x1 = 0.3991 | 816.5 | 1.45706 | 1240
298.15 K, x1 = 0.4993 | 805.7 | 1.44934 | 1231
298.15 K, x1 = 0.598 | 796 | 1.44247 | 1225
298.15 K, x1 = 0.6991 | 787.2 | 1.43623 | 1220
298.15 K, x1 = 0.7981 | 779.3 | 1.43061 | 1217
298.15 K, x1 = 0.8961 | 772 | 1.42549 | 1216
298.15 K, x1 = 0.9523 | 768.2 | 1.42279 | 1215
298.15 K, x1 = 1 | 765.1 | 1.42062 | 1215

Cc1ccccc1 [toluene]
Conditions | mass density, [1] [kg/m3] | refractive index, [2] | speed of sound, [1] [m/s]
283.15 K | 876.1 | 1.50278 | 1371
298.15 K | 862.2 | 1.49399 | 1305

Cc1ccccc1 [toluene] + C1CCCCC1
x2 = 0
Conditions | mass density, [3] [kg/m3] | refractive index, [4] | speed of sound, [3] [m/s]
283.15 K | 876.1 | 1.50278 | 1371
298.15 K | 862.2 | 1.49399 | 1305

Cc1ccccc1 [toluene] + C1CCCCCCC1
298.15 K, x2 = 0
Conditions | mass density [kg/m3] | refractive index | speed of sound [m/s]
[3] | 862.2 | – | 1305
[4] | – | 1.49399 | –

Cc1ccccc1 [toluene] + CC1CCCCC1
x2 = 0
Conditions | mass density, [3] [kg/m3] | refractive index, [4] | speed of sound, [3] [m/s]
283.15 K | 876.1 | 1.50278 | 1371
298.15 K | 862.2 | 1.49399 | 1305
